A short description of this data set: Animal PK: oral availability of 53b in cynomolgus monkeys after dosing of Formula I prodrugs. It is filed as in vivo. Particulars: 53b dosed IV. How it is done: The ability of prodrugs of the present invention to deliver 53a or 53b to the systemic circulation after oral dosing was assessed by methods well known in the art. For Table 1, each test compound was formulated into a solution for oral dosing by dissolving the compound in either an aqueous buffer such as PBS at pH 3 or pH 7 (in a solution of 100% propylene glycol), or in a solution containing a solubilizer such as Cremophor EL, Tween80, or PEG400. The solution of the compound was dosed by oral gavage to cynomolgus monkeys, generally using a group of four animals for each experiment. Plasma samples were collected from the animals at several time points (usually, from 6 to 12 time points were used) within 24 hours. The plasma samples were frozen quickly after collection, and thawed immediately before sample preparation for bioanalysis. […]
Calibration standards were prepared by serial dilution of an initial concentrated standard of the analyte with either animal plasma or cell culture media. […] The acceptance of the calibration curves was based on the accuracy of the back-calculated standard concentrations. A standard was accepted if the accuracy was within 15% for all the standards, except for the lower limit of quantitation for which 20% was applied. The fitted calibration curve was used to calculate the quantity of analyte in samples. […]

For the molecule `Nc1nc2c(sc(=O)n2C2O[C@H](CO)[C@H](O)[C@H]2O)c(=O)[nH]1` (some centres unmarked) [Compound 53b], for the setting “10 mg/kg (reference for the ratio)”, the FPO was determined as 1. Where the note is “cynomolgus monkey, plasma, 10 mg/kg, cynomolgus monkeys, mean of all individual AUC(0-inf) values”, the AUC(0-inf) was determined as 15200 ng·h/mL.

As usually defined, the AUC(0-inf) is the area under the concentration-time curve extrapolated to infinity.

Values taken from patent publication US7528115B2, “Carbonate and carbamate prodrugs of thiazolo[4,5-d]pyrimidines” (Anadys Pharmaceuticals, Inc., priority 2006, dated 2009).
